# Reference: PubChem BioAssay (NCI)
#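 Interpolation was linear, between the two tested concentrations surrounding the appropriate level; five concentrations were tested over 48 hours in 96-well plates. Here, GI50 denotes the concentration required for 50% inhibition of growth. TGI marks complete inhibition of growth.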
# Assays:
# Assay in all cases: NCI-60 cell line screen, 48 h
# HOP-92 NSCLC = system: HOP-92 NSCLC
# UACC-257 melanoma = system: UACC-257 melanoma
# OVCAR-8 ovarian = system: OVCAR-8 ovarian
# OVCAR-3 ovarian = system: OVCAR-3 ovarian
# UACC-62 melanoma = system: UACC-62 melanoma
# MOLT-4 leukemia = system: MOLT-4 leukemia
# NCI-H226 lung = system: NCI-H226 lung
# HCC-2998 colon = system: HCC-2998 colon
# M14 melanoma = system: M14 melanoma
# CAKI-1 renal = system: CAKI-1 renal
# HCT-116 colon = system: HCT-116 colon
# ACHN renal = system: ACHN renal
# RXF 393 renal = system: RXF 393 renal
# EKVX NSCLC = system: EKVX NSCLC
# COLO 205 colon = system: COLO 205 colon
# HT29 colon = system: HT29 colon
# MDA-MB-231 breast = system: MDA-MB-231 breast
# SNB-75 CNS = system: SNB-75 CNS
# BT-549 breast = system: BT-549 breast
# T-47D breast = system: T-47D breast
# KM12 colon = system: KM12 colon
# MALME-3M melanoma = system: MALME-3M melanoma
# 786-0 renal = system: 786-0 renal
# DU-145 prostate = system: DU-145 prostate
# NCI/ADR-RES ovarian = system: NCI/ADR-RES ovarian
# NCI-H522 lung = system: NCI-H522 lung
# SK-OV-3 ovarian = system: SK-OV-3 ovarian
# SF-268 CNS = system: SF-268 CNS
# SN12C renal = system: SN12C renal
# OVCAR-4 ovarian = system: OVCAR-4 ovarian
# MDA-MB-435 = system: MDA-MB-435
# SK-MEL-2 melanoma = system: SK-MEL-2 melanoma
# SW-620 colon = system: SW-620 colon
# A549 NSCLC = system: A549 NSCLC
# SNB-19 CNS = system: SNB-19 CNS
# SF-295 CNS = system: SF-295 CNS
# A498 renal = system: A498 renal
# SR leukemia = system: SR leukemia
# RPMI-8226 leukemia = system: RPMI-8226 leukemia
# UO-31 renal = system: UO-31 renal
# HCT-15 colon = system: HCT-15 colon
# HS 578T breast = system: HS 578T breast
# K-562 leukemia = system: K-562 leukemia
# SK-MEL-28 melanoma = system: SK-MEL-28 melanoma
# SK-MEL-5 melanoma = system: SK-MEL-5 melanoma
# HL-60(TB) leukemia = system: HL-60(TB) leukemia
# CCRF-CEM leukemia = system: CCRF-CEM leukemia
# MCF7 breast = system: MCF7 breast
# PC-3 prostate = system: PC-3 prostate
# NCI-H460 lung = system: NCI-H460 lung
# NCI-H23 lung = system: NCI-H23 lung
# SF-539 CNS = system: SF-539 CNS
# U251 CNS = system: U251 CNS
# LOX IMVI melanoma = system: LOX IMVI melanoma
# HOP-62 NSCLC = system: HOP-62 NSCLC
# TK-10 renal = system: TK-10 renal
# OVCAR-5 ovarian = system: OVCAR-5 ovarian
# IGROV1 ovarian = system: IGROV1 ovarian
smiles,measurement,setting,value
NC(=O)c1cccc(N2Cc3ccccc3OC3=C2C(=O)c2c(O)ccc(O)c2C3=O)c1,GI50,HOP-92 NSCLC,270 nM
same,TGI,HOP-92 NSCLC,752 nM
same,GI50,UACC-257 melanoma,531 nM
same,TGI,UACC-257 melanoma,1730 nM
same,GI50,OVCAR-8 ovarian,304 nM
same,TGI,OVCAR-8 ovarian,1500 nM
same,GI50,OVCAR-3 ovarian,233 nM
same,TGI,OVCAR-3 ovarian,646 nM
same,GI50,UACC-62 melanoma,319 nM
same,TGI,UACC-62 melanoma,1140 nM
same,GI50,MOLT-4 leukemia,235 nM
same,TGI,MOLT-4 leukemia,1090 nM
same,GI50,NCI-H226 lung,2040 nM
same,TGI,NCI-H226 lung,5.95 µM
same,GI50,HCC-2998 colon,1960 nM
same,TGI,HCC-2998 colon,3.64 µM
same,GI50,M14 melanoma,554 nM
same,TGI,M14 melanoma,1970 nM
same,GI50,CAKI-1 renal,301 nM
same,TGI,CAKI-1 renal,1130 nM
same,GI50,HCT-116 colon,267 nM
same,TGI,HCT-116 colon,963 nM
same,GI50,ACHN renal,165 nM
same,TGI,ACHN renal,485 nM
same,GI50,RXF 393 renal,189 nM
same,TGI,RXF 393 renal,433 nM
same,GI50,EKVX NSCLC,1260 nM
same,TGI,EKVX NSCLC,4.09 µM
same,GI50,COLO 205 colon,112 nM
same,TGI,COLO 205 colon,298 nM
same,GI50,HT29 colon,302 nM
same,TGI,HT29 colon,1150 nM
same,GI50,MDA-MB-231 breast,342 nM
same,TGI,MDA-MB-231 breast,1040 nM
same,GI50,SNB-75 CNS,1490 nM
same,TGI,SNB-75 CNS,6.67 µM
same,GI50,BT-549 breast,944 nM
same,TGI,BT-549 breast,2410 nM
same,GI50,T-47D breast,213 nM
same,TGI,T-47D breast,746 nM
same,GI50,KM12 colon,1880 nM
same,TGI,KM12 colon,4.88 µM
same,GI50,MALME-3M melanoma,194 nM
same,TGI,MALME-3M melanoma,614 nM
same,GI50,786-0 renal,276 nM
same,TGI,786-0 renal,986 nM
same,GI50,DU-145 prostate,517 nM
same,TGI,DU-145 prostate,1640 nM
same,GI50,NCI/ADR-RES ovarian,2130 nM
same,TGI,NCI/ADR-RES ovarian,35.6 µM
same,GI50,NCI-H522 lung,68.2 nM
same,TGI,NCI-H522 lung,256 nM
same,GI50,SK-OV-3 ovarian,3.51 µM
same,TGI,SK-OV-3 ovarian,13 µM
same,GI50,SF-268 CNS,1340 nM
same,TGI,SF-268 CNS,3.91 µM
same,GI50,SN12C renal,1440 nM
same,TGI,SN12C renal,3.4 µM
same,GI50,OVCAR-4 ovarian,312 nM
same,TGI,OVCAR-4 ovarian,1130 nM
same,GI50,MDA-MB-435,1080 nM
same,TGI,MDA-MB-435,2860 nM
same,GI50,SK-MEL-2 melanoma,1960 nM
same,TGI,SK-MEL-2 melanoma,4.79 µM
same,GI50,SW-620 colon,275 nM
same,TGI,SW-620 colon,1030 nM
same,GI50,A549 NSCLC,2830 nM
same,TGI,A549 NSCLC,10.1 µM
same,GI50,SNB-19 CNS,3 µM
same,TGI,SNB-19 CNS,10.8 µM
same,GI50,SF-295 CNS,2210 nM
same,TGI,SF-295 CNS,5.99 µM
same,GI50,A498 renal,2640 nM
same,TGI,A498 renal,7.21 µM
same,GI50,SR leukemia,88 nM
same,TGI,SR leukemia,912 nM
same,GI50,RPMI-8226 leukemia,319 nM
same,TGI,RPMI-8226 leukemia,1360 nM
same,GI50,UO-31 renal,138 nM
same,TGI,UO-31 renal,344 nM
same,GI50,HCT-15 colon,224 nM
same,TGI,HCT-15 colon,724 nM
same,GI50,HS 578T breast,3.28 µM
same,TGI,HS 578T breast,30.8 µM
same,GI50,K-562 leukemia,164 nM
same,TGI,K-562 leukemia,1330 nM
same,GI50,SK-MEL-28 melanoma,433 nM
same,TGI,SK-MEL-28 melanoma,1500 nM
same,GI50,SK-MEL-5 melanoma,1760 nM
same,TGI,SK-MEL-5 melanoma,3.84 µM
same,GI50,HL-60(TB) leukemia,188 nM
same,TGI,HL-60(TB) leukemia,496 nM
same,GI50,CCRF-CEM leukemia,120 nM
same,TGI,CCRF-CEM leukemia,595 nM
same,GI50,MCF7 breast,327 nM
same,TGI,MCF7 breast,1730 nM
same,GI50,PC-3 prostate,1280 nM
same,TGI,PC-3 prostate,4.56 µM
same,GI50,NCI-H460 lung,2340 nM
same,TGI,NCI-H460 lung,6.12 µM
same,GI50,NCI-H23 lung,1590 nM
same,TGI,NCI-H23 lung,4.5 µM
same,GI50,SF-539 CNS,1250 nM
same,TGI,SF-539 CNS,2630 nM
same,GI50,U251 CNS,1510 nM
same,TGI,U251 CNS,4.59 µM
same,GI50,LOX IMVI melanoma,284 nM
same,TGI,LOX IMVI melanoma,897 nM
same,GI50,HOP-62 NSCLC,2140 nM
same,TGI,HOP-62 NSCLC,5.96 µM
same,GI50,TK-10 renal,221 nM
same,TGI,TK-10 renal,682 nM
same,GI50,OVCAR-5 ovarian,1280 nM
same,TGI,OVCAR-5 ovarian,2870 nM
same,GI50,IGROV1 ovarian,1190 nM
same,TGI,IGROV1 ovarian,3.01 µM
